For 49 molecules, IC50 and melting point results are on record in US8273773B2 (priority 2008, dated 2012).

The IC50 is the point on the concentration scale where inhibition reaches its midpoint. A higher IC50 goes with lower potency. Broadly, the melting point is the temperature of the solid-liquid transition.

For series [1], the target named is T1, HCV polymerase (NS5B570n-Con1) (Hepatitis C virus genotype 1b, UniProt Q9WMX2).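 Also: recombinant His-tagged enzyme from E. coli, radiolabeled nucleotide incorporation into acid-insoluble RNA read by scintillation after filtration, no-enzyme background subtracted, activity relative to positive control.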
T1 construct: contains a 21 amino acid deletion at the C-terminus relative to the full-length HCV polymerase; 6-histidine (N); made in house; host or cells: E. coli strain BL21(DE) pLysS (pET17b)
Description: biochemical. Also on record: species or system HCV Con1 strain. Conditions: IC50 HCV NS5B RNA Polymerase Assay, values without asterisk; 20 nM NS5B570n-Con1 enzyme, 20 nM cIRES RNA template.

`Cc1cc(-c2cc(C)c[nH]c2=O)cc(C(C)(C)C)c1` [I-7] registered a melting point of 212 to 213 °C. The molecule also displayed an IC50 in series [1] of 3260 nM.
Molecule `Cc1cc(-c2cc(Cl)c[nH]c2=O)cc(C(C)(C)C)c1` [I-8] yielded a melting point of 232 to 233 °C. In series [1], this molecule gave an IC50 of 1960 nM.
The matching figures for `CCC(C)(C)c1cc(Br)c(O)c(-c2ccc[nH]c2=O)c1` [I-9]: 257.2 to 257.7 °C and 3100 nM.
The matching figures for `CC(C)(C)c1cc(CO)c(O)c(-c2ccc[nH]c2=O)c1` [I-10]: 167 to 168 °C and 1600 nM.
On the same counts, the results for `Cc1cc(C(C)(C)C)cc(-c2ccc[nH]c2=O)c1O` [I-11] are 207 to 208.5 °C and 340 nM.
`CC(C)(C)c1cc(Br)c(O)c(-c2ccc[nH]c2=O)c1` [I-13]: the melting point was 243.4 to 246.2 °C. Moreover, inhibition in series [1] was half-maximal at 360 nM (IC50).
The matching figures for `CCc1cc(C(C)(C)C)cc(-c2ccc[nH]c2=O)c1O` [I-14]: 224.2 to 226.2 °C and 332 nM.
Molecule `CC(C)(C)c1cc(-c2ccccc2)c(O)c(-c2ccc[nH]c2=O)c1` [I-15] had a melting point of 235.8 to 237 °C. Besides, in series [1], the IC50 was found to be 2920 nM.
`CC(C)(C)c1cc(Cl)c(O)c(-c2ccc[nH]c2=O)c1` [I-16] yielded a melting point of 211.4 to 213.5 °C. Further, the IC50 in series [1] was 532 nM.
Turning to `CC(C)(C)c1cc(Cc2ccccc2)c(O)c(-c2ccc[nH]c2=O)c1` [I-17], the melting point was 236 to 237 °C. Also, 293 nM corresponded to half-maximal inhibition in series [1] (IC50).
In turn, `COc1c(C(=O)NC2CC2)cc(-c2ccc[nH]c2=O)cc1C(C)(C)C` [I-19] displayed a melting point of 223 to 224 °C. In series [1], this molecule displayed a half-inhibitory concentration (IC50) of 1620 nM.
On the same counts, the results for `CC(C)(C)c1cc(CCc2ccc(F)cc2)c(O)c(-c2ccc[nH]c2=O)c1` [I-20] are 178 to 179 °C and 378 nM.
The matching figures for `COc1c(CCc2ccc(F)cc2)cc(-c2ccc[nH]c2=O)cc1C(C)(C)C` [I-21]: 157 to 158 °C and 90 nM.
On the same counts, the results for `COc1c(CCC(=O)O)cc(-c2ccc[nH]c2=O)cc1C(C)(C)C` [I-22] are 180.2 to 181.8 °C and 330 nM.
On to `COc1c(O)cc(-c2ccc[nH]c2=O)cc1C(C)(C)C` [I-23], for which the melting point lay in the range of 214 to 215 °C. The molecule also registered an IC50 in series [1] of 1170 nM.
In turn, `COc1c(NC(=O)c2ccc(N)cc2Cl)cc(-c2ccc[nH]c2=O)cc1C(C)(C)C` [I-25] came in with a melting point of 226 to 228 °C. Further, the IC50 in series [1] worked out at 31 nM.
Regarding `COc1cc(-c2ccc[nH]c2=O)cc(C(C)(C)C)c1OC` [I-26], the melting point is 206.3 to 207.1 °C. Besides, half-maximal inhibition in series [1] (IC50) required 866 nM.
The matching figures for `COc1c(C)cc(-c2ccc[nH]c2=O)cc1C(C)(C)C` [I-29]: 176 to 178 °C and 521 nM.
On the same counts, the results for `CCc1cc(-c2ccc[nH]c2=O)cc(C(C)(C)C)c1OC` [I-30] are 213 to 214 °C and 728 nM.
Turning to `CC(C)(C)c1cc(Oc2ccccc2)cc(-c2ccc[nH]c2=O)c1` [I-45, 3-(3-tert-Butyl-5-phenoxy-phenyl)-1H-pyridin-2-one], the melting point is 90 to 91 °C. In series [1], the midpoint of inhibition, the IC50, lay at 786 nM.
As for `CC(C)(C)c1cc(Cc2ccccc2)cc(-c2ccc[nH]c2=O)c1` [I-46, 3-(3-Benzyl-5-tert-butyl-phenyl)-1H-pyridin-2-one], the melting point lay within 180 to 181 °C. It took 534 nM to reach half-maximal inhibition in series [1] (IC50).
On the same counts, the results for `COc1c(Cc2ccccc2)cc(-c2ccc[nH]c2=O)cc1C(C)(C)C` [I-48] are 202.6 to 204.3 °C and 528 nM.
The matching figures for `COc1c(C(=O)c2cccc(F)c2)cc(-c2ccc[nH]c2=O)cc1C(C)(C)C` [I-49]: 209 to 210 °C and 71 nM.
On the same counts, the results for `COc1c(C(=O)c2ccc(F)cc2)cc(-c2ccc[nH]c2=O)cc1C(C)(C)C` [I-50] are 203 to 205 °C and 52 nM.
Turning to `CC(C)(C)c1cc(CCc2ccc(NS(C)(=O)=O)cc2)c(O)c(-c2ccc[nH]c2=O)c1` [I-51, N-(4-{2-[5-tert-Butyl-2-hydroxy-3-(2-oxo-1,2-dihydro-pyridin-3-yl)-phenyl]-ethyl}-phenyl)-methanesulfonamide], the melting point was in the range of 96.4 to 135.6 °C. Also, in series [1], half-maximal inhibition (IC50) was put at 10 nM.
The matching figures for `COc1c(C(=O)c2cc(F)cc(F)c2)cc(-c2ccc[nH]c2=O)cc1C(C)(C)C` [I-52]: 197.1 to 198.6 °C and 143 nM.
The matching figures for `Cc1cc(-c2cc(F)c[nH]c2=O)cc(C(C)(C)C)c1` [I-53]: 244 to 246 °C and 1930 nM.
For `COc1c(C(=O)c2cccc(O)c2)cc(-c2ccc[nH]c2=O)cc1C(C)(C)C` [I-54], the melting point lay in the range of 145 to 148 °C. The molecule further came in with an IC50 in series [1] of 9 nM.
`COc1c(C(=O)c2ccc(O)cc2)cc(-c2ccc[nH]c2=O)cc1C(C)(C)C` [I-55] registered a melting point of 185 to 187 °C. The 50% inhibitory concentration (IC50) in series [1] was 59 nM.
The matching figures for `COc1ccc(-c2ccc[nH]c2=O)c(F)c1C(C)(C)C` [I-56, 3-(3-tert-Butyl-2-fluoro-4-methoxy-phenyl)-1H-pyridin-2-one]: 164.5 to 166 °C and 136 nM.
As for `COc1c(C(=O)c2sccc2C)cc(-c2ccc[nH]c2=O)cc1C(C)(C)C` [I-57], the melting point was in the range of 123.3 to 125.5 °C. Also, the IC50 in series [1] is 61 nM.
The molecule `COc1c(NC(=O)c2ccccc2)cc(-c2ccc[nH]c2=O)cc1C(C)(C)C` [I-58] came in with a melting point of 212 to 216 °C. Besides, in series [1], the IC50 came to 34 nM.
With `COc1c(C(=O)c2cccc(N)c2)cc(-c2ccc[nH]c2=O)cc1C(C)(C)C` [I-59, 3-[3-(3-amino-benzoyl)-5-tert-butyl-4-methoxy-phenyl]-1H-pyridin-2-one], the melting point was in the range of 145 to 150 °C. The same molecule had an IC50 in series [1] of 9 nM.
`COc1ccc(-c2ccc[nH]c2=O)cc1C1(C)CC1` [I-61] showed a melting point of 194 to 195 °C. This molecule yielded an IC50 in series [1] of 1230 nM.
Consider `COc1ccc(-c2ccc[nH]c2=O)cc1C(C)(C)OC` [I-62], for which the melting point fell in the range of 154 to 155 °C. The molecule also showed an IC50 in series [1] of 4130 nM.
The matching figures for `COc1c(C(=O)c2cccc(C(N)=O)c2)cc(-c2ccc[nH]c2=O)cc1C(C)(C)C` [I-63]: 150 to 160 °C and 10 nM.
Turning to `COc1c(CCc2ccc(NS(C)(=O)=O)cc2)cc(-c2ccc(C)[nH]c2=O)cc1C(C)(C)C` [I-64, N-(4-{2-[3-tert-Butyl-2-methoxy-5-(6-methyl-2-oxo-1,2-dihydro-pyridin-3-yl)-phenyl]-ethyl}-phenyl)-methanesulfonamide], the melting point is 239 to 241 °C. In series [1], this molecule showed a half-maximal inhibitory concentration (IC50) of 8 nM.
For the molecule `COc1c(C(=O)c2cccc(CNS(C)(=O)=O)c2)cc(-c2ccc[nH]c2=O)cc1C(C)(C)C` [I-65], the melting point is 110 to 115 °C. The molecule also showed a concentration for half-maximal inhibition (IC50) in series [1] of 30 nM.
In turn, `COc1c(CCc2ccc(NS(C)(=O)=O)cc2)cc(-c2cc(F)c[nH]c2=O)cc1C(C)(C)C` [I-67] yielded a melting point of 125 to 130 °C. Also, the IC50 in series [1] was found to be 10 nM.
Take `COc1c(C(=O)Nc2ccccc2)cc(-c2ccc[nH]c2=O)cc1C(C)(C)C` [I-68]: the melting point lay in the range of 288 to 290 °C. Also, the IC50 in series [1] was found to be 107 nM.
On the same counts, the results for `COc1c(C(=O)Nc2ccc(NS(C)(=O)=O)cc2C)cc(-c2ccc[nH]c2=O)cc1C(C)(C)C` [I-69, 3-tert-Butyl-N-(4-methanesulfonylamino-2-methyl-phenyl)-2-methoxy-5-(2-oxo-1,2-dihydro-pyridin-3-yl)-benzamide] are 278 to 280 °C and 13 nM.
On the same counts, the results for `COc1c(NC(=O)c2ccc(N)cc2)cc(-c2ccc[nH]c2=O)cc1C(C)(C)C` [I-72] are 190 to 193 °C and 34 nM.
The matching figures for `CC(C)(C)c1cc(-c2ccc[nH]c2=O)cc(NC(=O)c2ccc(NS(C)(=O)=O)cc2)c1F` [I-73, N-[3-tert-Butyl-2-fluoro-5-(2-oxo-1,2-dihydro-pyridin-3-yl)-phenyl]-4-methanesulfonylamino-benzamide]: 286 to 288 °C and 54 nM.
For `CC(C)(C)c1cc(CCc2ccc(NS(C)(=O)=O)cc2)cc(-c2ccc[nH]c2=O)c1` [I-74], the melting point is 211 to 213 °C. Moreover, in series [1], the IC50 worked out at 25 nM.
On the same counts, the results for `COc1c(C(=O)Nc2ccc(CNS(C)(=O)=O)cc2)cc(-c2ccc[nH]c2=O)cc1C(C)(C)C` [I-76] are 213 to 216 °C and 62 nM.
The matching figures for `CC(=O)Nc1c(CCc2ccc(NS(C)(=O)=O)cc2)cc(C(C)(C)C)cc1-c1ccc[nH]c1=O` [I-80, N-[4-tert-Butyl-2-[2-(4-methanesulfonylamino-phenyl)-ethyl]-6-(2-oxo-1,2-dihydro-pyridin-3-yl)-phenyl]-acetamide]: 180 to 182 °C and 97 nM.
`COc1c(NC(=O)c2ccc(NS(C)(=O)=O)cc2)cc(-c2cc(F)c[nH]c2=O)cc1C(C)(C)C` [I-81] showed a melting point of 272 to 274 °C. Also, the half-maximal inhibitory concentration (IC50) in series [1] stood at 22 nM.
On the same counts, the results for `COc1c(NC(=O)c2ccc(NS(C)(=O)=O)cc2)cc(-c2ccc[nH]c2=O)cc1C1(C)CC1` [I-82] are 254 to 256 °C and 6 nM.
The matching figures for `CC(=O)Nc1ccc(CCc2cc(-c3ccc[nH]c3=O)cc(C(C)(C)C)c2)cc1` [I-83]: 218 to 220 °C and 125 nM.
